Reference: US10533207B2, “Bioactivity testing structure for single cell tracking using gelling agents” (QuantaMatrix Inc., priority 2014, dated 2020)
Values after ≈ are worked out from the molar mass of the structure shown.

Assays:
Assay type in all cases: cell-based, Mycobacterium tuberculosis
M. tuberculosis H37Rv = assay: DST of MTB using the DAC system (MIC from time-lapse images); conditions: for MIC: Mycobacterium tuberculosis, 120 h, images over 5 days; for susceptibility of the strain (in words): from the MIC data
MDR-TB clinical strain = assay: as above; conditions: for susceptibility determined from the MIC data and the critical concentrations: DAC system, MDR strain; for MIC: Mycobacterium tuberculosis, 120 h
XDR-TB clinical strain = assay: as above; conditions: for susceptibility determined from the MIC data and the critical concentrations: DAC system, XDR strain; for MIC: Mycobacterium tuberculosis, 120 h
standard strain H37Rv = assay: Inoculum effect test, DST on the DAC system
clinical strain 1088 = assay: Inoculum effect on clinical strains on the DAC system
Description: (§1) Mycobacterium tuberculosis identified by ZN staining and grown from an L-J slope or MGIT tube and was subjected to DST. For the preparation of inoculation from the LJ culture, colonies up to 14 days were extracted from the grown culture. The colonies were shaken with glass beads to crush large lumps. To obtain a high density (˜5×10^9 CFU/ml), the suspension was centrifuged at 3000 g for 10 min and pellets were resuspended in sterile PBS. Subsequently, the suspension was added to liquid agarose, inoculated in a bacteria-agarose mixture within the range of 10^1 to 5×10^8 CFU/ml, and loaded in the main channel After solidification, 7H9 broth containing each antibiotic was applied to the chamber. All bacterial cells were imaged with an inverted optical microscope (IS71, Olympus).
(§2) Clinical strains express various phenotypes, particularly, in drug susceptibility. […] Rifampicin, isoniazid, streptomycin, and ethambutol were used as test drugs. For the 131 strains, the highest concentration was 1.3×10^9.

clinical strain 131 = assay: as above
Description: as §1, §2

clinical strain CMS = assay: as above
Description: as §1, §2

clinical strain CYD = assay: as above
Description: as §1, §2

clinical strain KHS = assay: as above
Description: as §1, §2

clinical strain MSH = assay: as above
Description: as §1, §2

[1] = inoculum 10^3/mL, DAC, unit inferred
[2] = inoculum 10^4/mL, DAC, unit inferred
[3] = inoculum 10^5/mL, DAC, unit inferred
[4] = inoculum 10^6/mL, MAC2, unit inferred
[5] = inoculum 10^7/mL, MAC2, unit inferred

SMILES	susceptibility determined from the MIC data and the critical concentrations (M. tuberculosis H37Rv)	MIC (M. tuberculosis H37Rv) [µg/mL]	susceptibility determined from the MIC data and the critical concentrations (MDR-TB clinical strain)	MIC (MDR-TB clinical strain) [µg/mL]	susceptibility determined from the MIC data and the critical concentrations (XDR-TB clinical strain)	MIC (XDR-TB clinical strain) [µg/mL]	MIC (DAC) (standard strain H37Rv; [1]) [µg/mL]	MIC (DAC) (standard strain H37Rv; [2]) [µg/mL]	MIC (DAC) (standard strain H37Rv; [3]) [µg/mL]	MIC (DAC) (standard strain H37Rv; [4]) [µg/mL]	MIC (DAC) (standard strain H37Rv; [5]) [µg/mL]	MIC (DAC) (clinical strain 1088; [1]) [µg/mL]	MIC (DAC) (clinical strain 1088; [2]) [µg/mL]	MIC (DAC) (clinical strain 1088; [3]) [µg/mL]	MIC (DAC) (clinical strain 1088; [4]) [µg/mL]	MIC (DAC) (clinical strain 1088; [5]) [µg/mL]	MIC (DAC) (clinical strain 131; [1]) [µg/mL]	MIC (DAC) (clinical strain 131; [2]) [µg/mL]	MIC (DAC) (clinical strain 131; [3]) [µg/mL]	MIC (DAC) (clinical strain 131; [4]) [µg/mL]	also measured
NNC(=O)c1ccncc1 [INH, isoniazid]	S	0.05 (≈ 0.365 µM)	R	> 0.2	R	> 0.2	0.05 (≈ 0.365 µM)	0.05 (≈ 0.365 µM)	0.05 (≈ 0.365 µM)	0.05 (≈ 0.365 µM)	0.05 (≈ 0.365 µM)	≥ 0.2	0.2 (≈ 1.46 µM)	0.2 (≈ 1.46 µM)	≥ 0.2	≥ 0.2	0.2 (≈ 1.46 µM)	> 0.2	> 0.2	> 0.2	susceptibility of the strain (in words) (M. tuberculosis H37Rv): sensitive; MIC (DAC) (clinical strain 131; [5]): > 0.2 µg/mL; MIC (DAC) (clinical strain CMS; [2]): 0.05 µg/mL (≈ 0.365 µM); MIC (DAC) (clinical strain CMS; [3]): 0.025 µg/mL (≈ 0.182 µM); MIC (DAC) (clinical strain CMS; [4]): 0.025 µg/mL (≈ 0.182 µM); MIC (DAC) (clinical strain CMS; [5]): 0.05 µg/mL (≈ 0.365 µM); MIC (DAC) (clinical strain CYD; [2]): 0.05 µg/mL (≈ 0.365 µM); MIC (DAC) (clinical strain CYD; [3]): 0.025 µg/mL (≈ 0.182 µM); MIC (DAC) (clinical strain CYD; [4]): 0.025 µg/mL (≈ 0.182 µM); MIC (DAC) (clinical strain CYD; [5]): 0.025 µg/mL (≈ 0.182 µM); MIC (DAC) (clinical strain KHS; [2]): 0.05 µg/mL (≈ 0.365 µM); MIC (DAC) (clinical strain KHS; [3]): 0.025 µg/mL (≈ 0.182 µM); MIC (DAC) (clinical strain KHS; [4]): 0.025 µg/mL (≈ 0.182 µM); MIC (DAC) (clinical strain KHS; [5]): 0.025 µg/mL (≈ 0.182 µM); MIC (DAC) (clinical strain MSH; [2]): 0.025 µg/mL (≈ 0.182 µM); MIC (DAC) (clinical strain MSH; [3]): 0.025 µg/mL (≈ 0.182 µM); MIC (DAC) (clinical strain MSH; [4]): 0.025 µg/mL (≈ 0.182 µM); MIC (DAC) (clinical strain MSH; [5]): 0.025 µg/mL (≈ 0.182 µM)
CO[C@H]1/C=C/O[C@@]2(C)Oc3c(C)c(O)c4c(O)c(c(/C=N/N5CCN(C)CC5)c(O)c4c3C2=O)NC(=O)/C(C)=C\C=C\[C@H](C)[C@H](O)[C@@H](C)[C@@H](O)[C@@H](C)[C@H](OC(C)=O)[C@@H]1C [RFP, rifampicin]	S	0.25 (≈ 0.304 µM)	R	> 2	R	> 2	0.5 (≈ 0.608 µM)	0.5 (≈ 0.608 µM)	0.5 (≈ 0.608 µM)	0.5 (≈ 0.608 µM)	0.5 (≈ 0.608 µM)	≥ 2	≥ 2	≥ 2	≥ 2	≥ 2	> 2	> 2	> 2	> 2	MIC (DAC) (clinical strain 131; [5]): > 2 µg/mL; MIC (DAC) (clinical strain CMS; [2]): 0.25 µg/mL (≈ 0.304 µM); MIC (DAC) (clinical strain CMS; [3]): 0.25 µg/mL (≈ 0.304 µM); MIC (DAC) (clinical strain CMS; [4]): 0.5 µg/mL (≈ 0.608 µM); MIC (DAC) (clinical strain CMS; [5]): 0.5 µg/mL (≈ 0.608 µM); MIC (DAC) (clinical strain CYD; [2]): 0.25 µg/mL (≈ 0.304 µM); MIC (DAC) (clinical strain CYD; [3]): 0.25 µg/mL (≈ 0.304 µM); MIC (DAC) (clinical strain CYD; [4]): 0.25 µg/mL (≈ 0.304 µM); MIC (DAC) (clinical strain CYD; [5]): 0.5 µg/mL (≈ 0.608 µM); MIC (DAC) (clinical strain KHS; [2]): 0.25 µg/mL (≈ 0.304 µM); MIC (DAC) (clinical strain KHS; [3]): 0.25 µg/mL (≈ 0.304 µM); MIC (DAC) (clinical strain KHS; [4]): 0.25 µg/mL (≈ 0.304 µM); MIC (DAC) (clinical strain KHS; [5]): 0.5 µg/mL (≈ 0.608 µM); MIC (DAC) (clinical strain MSH; [2]): 0.25 µg/mL (≈ 0.304 µM); MIC (DAC) (clinical strain MSH; [3]): 0.25 µg/mL (≈ 0.304 µM); MIC (DAC) (clinical strain MSH; [4]): 0.25 µg/mL (≈ 0.304 µM); MIC (DAC) (clinical strain MSH; [5]): 0.5 µg/mL (≈ 0.608 µM)
[H]/N=C(/N)N[C@H]1[C@H](O)[C@@H](O)[C@H](O[C@@H]2O[C@@H](C)[C@](O)(C=O)[C@H]2O[C@@H]2O[C@@H](CO)[C@H](O)[C@@H](O)[C@@H]2NC)[C@@H](N/C(N)=N\[H])[C@@H]1O [SM, streptomycin]	R	2 (≈ 3.44 µM)	R	> 4	R	> 4	2 (≈ 3.44 µM)	2 (≈ 3.44 µM)	2 (≈ 3.44 µM)	2 (≈ 3.44 µM)	> 2	≥ 4	≥ 4	≥ 4	≥ 4	≥ 4	> 4	> 4	> 4	> 4	susceptibility of the strain (in words) (M. tuberculosis H37Rv): sensitive; MIC (DAC) (clinical strain 131; [5]): > 4 µg/mL; MIC (DAC) (clinical strain CMS; [2]): 0.5 µg/mL (≈ 0.86 µM); MIC (DAC) (clinical strain CMS; [3]): 0.5 µg/mL (≈ 0.86 µM); MIC (DAC) (clinical strain CMS; [4]): 1 µg/mL (≈ 1.72 µM); MIC (DAC) (clinical strain CMS; [5]): 1 µg/mL (≈ 1.72 µM); MIC (DAC) (clinical strain CYD; [2]): 0.5 µg/mL (≈ 0.86 µM); MIC (DAC) (clinical strain CYD; [3]): 0.25 µg/mL (≈ 0.43 µM); MIC (DAC) (clinical strain CYD; [4]): 0.5 µg/mL (≈ 0.86 µM); MIC (DAC) (clinical strain CYD; [5]): 1 µg/mL (≈ 1.72 µM); MIC (DAC) (clinical strain KHS; [2]): 0.5 µg/mL (≈ 0.86 µM); MIC (DAC) (clinical strain KHS; [3]): 0.25 µg/mL (≈ 0.43 µM); MIC (DAC) (clinical strain KHS; [4]): 0.5 µg/mL (≈ 0.86 µM); MIC (DAC) (clinical strain KHS; [5]): 1 µg/mL (≈ 1.72 µM); MIC (DAC) (clinical strain MSH; [2]): 0.25 µg/mL (≈ 0.43 µM); MIC (DAC) (clinical strain MSH; [3]): 0.25 µg/mL (≈ 0.43 µM); MIC (DAC) (clinical strain MSH; [4]): 1 µg/mL (≈ 1.72 µM); MIC (DAC) (clinical strain MSH; [5]): 0.5 µg/mL (≈ 0.86 µM)
